# Measurements from patent US9546153B2, “Bicyclic heterocycle substituted pyridyl compounds useful as kinase modulators” (BRISTOL-MYERS SQUIBB COMPANY, priority 2012, dated 2017).
# Like-named read-outs stand apart in the source and are kept apart here.
# What was measured:
# [1] = system: TLR2 induced IL-6 in peripheral blood mononuclear cells (PBMCs); test: PBMC TLR2 Induced IL-6 Assay; format: cell-based, human; details: read-out: Cell IC50
# Method in brief: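 Human PBMCs (250000 cells/well) in RPMI with 10% heat-inactivated FCS pre-treated with compound for 30 min at 37° C, then stimulated 5 h with 10 μg/ml lipoteichoic acid. Supernatant IL-6 measured by ELISA and reported as IC50 or EC50.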
# IRAK4 = IRAK4 (Homo sapiens (Human), UniProt Q9NWZ3); test: IRAK4 Inhibition Assay; format: biochemical; details: ATP 500 μM; IRAK4 0.6 nM; 60 min at room temperature
# Experimental: The assays were performed in U-bottom 384-well plates. […] The reaction was initiated by the combination of IRAK4 with substrates and test compounds. The reaction was incubated at room temperature for 60 min. and terminated by adding 45 μL of 35 mM EDTA to each sample. The reaction mixture was analyzed on the Caliper LABCHIP® 3000 (Caliper, Hopkinton, Mass.) by electrophoretic separation of the fluorescent substrate and phosphorylated product.
# [2] = Homo sapiens, PBMC, 5 h, human PBMCs, 10 μg/ml lipoteichoic acid for 5 hours, IL-6 by ELISA, value without asterisk
# [3] = human PBMCs, 10 μg/ml lipoteichoic acid for 5 hours, IL-6 by ELISA, value without asterisk
# Chain of IRAK4 (Q9NWZ3 whole entry, species assumed): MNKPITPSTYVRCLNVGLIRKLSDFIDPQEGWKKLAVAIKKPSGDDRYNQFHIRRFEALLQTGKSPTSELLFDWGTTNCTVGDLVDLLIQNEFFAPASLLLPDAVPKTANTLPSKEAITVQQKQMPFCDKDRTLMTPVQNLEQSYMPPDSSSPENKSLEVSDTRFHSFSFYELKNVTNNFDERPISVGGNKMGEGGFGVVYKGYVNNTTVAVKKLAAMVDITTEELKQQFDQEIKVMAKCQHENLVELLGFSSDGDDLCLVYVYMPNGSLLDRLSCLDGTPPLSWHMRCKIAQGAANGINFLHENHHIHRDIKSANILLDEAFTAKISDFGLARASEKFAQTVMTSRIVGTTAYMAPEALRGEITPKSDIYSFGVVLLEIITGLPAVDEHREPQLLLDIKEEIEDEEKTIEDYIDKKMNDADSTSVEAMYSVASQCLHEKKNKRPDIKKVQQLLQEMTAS
Structure (SMILES),"IC50 [1, 2] [µM]",IC50 (IRAK4) [µM],"IC50 [1, 3] [µM]","IC50 ([1]; Homo sapiens, PBMC, 5 h) [µM]"
CC(C)Nc1cc(Nc2ccc3nnccc3c2)ncc1C(=O)NC[C@@H](F)C(C)(C)O [Example 119],0.587,0.0217,–,–
CC(C)Nc1cc(Nc2cc(F)c3ncsc3c2)ncc1C(=O)NC[C@@H](F)C(C)(C)O [Example 120],0.459,0.0059,–,–
CC(C)(O)[C@H](F)CNC(=O)c1cnc(Nc2ccc3ncsc3c2)cc1NC1CC(F)(F)C1 [Example 121],0.345,0.002,–,–
CC(C)(O)[C@H](F)CNC(=O)c1cnc(Nc2ccc3ncccc3n2)cc1NC1CC1 [Example 122],0.207,0.0042,–,–
CC(C)Nc1cc(Nc2ccc3ncccc3n2)ncc1C(=O)NC[C@@H](F)C(C)(C)O [Example 123],0.271,0.0036,–,–
COc1ncnc2ccc(Nc3cc(NC4CCOCC4)c(C(=O)NC[C@@H](F)C(C)(C)O)cn3)cc12 [Example 124],0.42,0.0039,–,–
CCNc1cc(Nc2ccc3ncnc(OC)c3c2)ncc1C(=O)NC[C@@H](F)C(C)(C)O [Example 125],0.779,0.0134,–,–
CC(C)(F)CNc1cc(Nc2ccc3ncsc3c2)ncc1C(=O)NC[C@@H](F)C(C)(C)O [Example 126],0.102,0.0015,–,–
CC(C)(F)CNc1cc(Nc2ccc3ncccc3c2)ncc1C(=O)NC[C@@H](F)C(C)(C)O [Example 127],0.472,0.0041,–,–
COc1ncnc2ccc(Nc3cc(NC4CC4)c(C(=O)NC[C@@H](F)C(C)(C)O)cn3)cc12 [Example 128],0.391,0.0104,–,–
CC(C)(O)[C@H](F)CNC(=O)c1cnc(Nc2ccc3ncsc3c2)cc1NCCC1CC1 [Example 129],0.143,0.0026,–,–
CC(C)Nc1cc(Nc2ccc3ncoc3c2)ncc1C(=O)NC[C@@H](F)C(C)(C)O [Example 130],0.231,0.0026,–,–
CC(C)(O)[C@H](F)CNC(=O)c1cnc(Nc2ccc3ncsc3c2)cc1NC12CCC(O)(CC1)C2 [Example 133],0.23,0.002,–,–
CC(C)(F)CNc1cc(Nc2ccc3ncccc3n2)ncc1C(=O)NC[C@@H](F)C(C)(C)O [Example 134],0.447,0.0088,–,–
CCC(C)Nc1cc(Nc2ccc3ncsc3c2)ncc1C(=O)NC[C@@H](F)C(C)(C)O (stereo partly shown) [Example 137],0.528,0.0036,–,–
CCC(C)Nc1cc(Nc2ccc3ncsc3c2)ncc1C(=O)NC[C@@H](F)C(C)(C)O (stereo partly shown) [Example 138],–,0.0019,0.302,–
CC(=O)NC12CCC(Nc3cc(Nc4ccc5ncsc5c4)ncc3C(=O)NC[C@@H](F)C(C)(C)O)(CC1)C2 [Example 139],0.31,0.0031,–,–
CC(C)(O)[C@H](F)CNC(=O)c1cnc(Nc2ccc3ncsc3c2)cc1NC12CCC(N)(CC1)C2 [Example 140],0.219,0.0023,–,–
CC(C)(O)[C@H](F)CNC(=O)c1cnc(Nc2ccn3nccc3n2)cc1NC12CCC(O)(CC1)C2 [Example 141],0.279,0.0022,–,–
CCNC(=O)c1cnc(Nc2ccc3ncsc3c2)cc1N[C@@H](c1ccccc1)[C@H](O)CO [Example 144],0.199,0.0074,–,–

Structure (SMILES),"IC50 [1, 2] [µM]",IC50 (IRAK4) [µM],"IC50 [1, 3] [µM]","IC50 ([1]; Homo sapiens, PBMC, 5 h) [µM]"
CN1CCCC1CCNC(=O)c1cnc(Nc2ccc3ncsc3c2)cc1NC1CCCC1 (stereo not shown) [Example 149],0.386,0.0038,–,–
O=C(NC[C@@H](F)CO)c1cnc(Nc2ccc3ncsc3c2)cc1NC1CCCC1 [Example 150],0.395,0.0059,–,–
O=C(NCCN1CCCC1)c1cnc(Nc2ccc3ncsc3c2)cc1NC1CCCC1 [Example 151],0.191,0.0042,–,–
CC(=O)NCCNC(=O)c1cnc(Nc2ccc3ncsc3c2)cc1NC1CCCC1 [Example 152],0.596,0.0075,–,–
O=C(NCCN1CCOCC1)c1cnc(Nc2ccc3ncsc3c2)cc1NC1CCCC1 [Example 154],0.535,0.0068,–,–
O=C(Nc1ccc(Cn2cncn2)cc1)c1cnc(Nc2ccc3ncsc3c2)cc1NC1CCCC1 [Example 156],0.502,0.0099,–,–
O=C(NC1CCC(O)CC1)c1cnc(Nc2ccc3ncsc3c2)cc1NC1CCCC1 (stereo not shown) [Example 157],0.836,0.0042,–,–
CCCNc1cc(Nc2ccc3ncsc3c2)ncc1C(=O)NC[C@@H](F)C(C)(C)O [Example 159],0.146,0.0032,–,–
CCCCNc1cc(Nc2ccc3ncsc3c2)ncc1C(=O)NC[C@@H](F)C(C)(C)O [Example 160],0.109,0.0048,–,–
CC(C)(O)[C@H](F)CNC(=O)c1cnc(Nc2ccc3ncsc3c2)cc1NCCO [Example 161],0.577,0.0179,–,–
CC(C)CNc1cc(Nc2ccc3ncsc3c2)ncc1C(=O)NC[C@@H](F)C(C)(C)O [Example 162],0.048,0.0036,–,–
CC(C)(O)[C@H](F)CNC(=O)c1cnc(Nc2ccc3ncsc3c2)cc1NCCN1CCOCC1 [Example 164],0.388,0.0349,–,–
CC(C)(O)[C@H](F)CNC(=O)c1cnc(Nc2ccc3ncsc3c2)cc1NCCc1ccccc1 [Example 165],0.386,0.009,–,–
Cc1ccccc1CNc1cc(Nc2ccc3ncsc3c2)ncc1C(=O)NC[C@@H](F)C(C)(C)O [Example 166],0.266,0.0084,–,–
CC(C)(O)[C@H](F)CNC(=O)c1cnc(Nc2ccc3ncsc3c2)cc1NCc1ccc(Cl)cc1 [Example 167],0.526,0.0098,–,–
COc1ccc(CNc2cc(Nc3ccc4ncsc4c3)ncc2C(=O)NC[C@@H](F)C(C)(C)O)cc1 [Example 168],0.565,0.0134,–,–
"CC1(O)CCC(NC(=O)c2cnc(Nc3ccc4ncsc4c3)cc2NC2CC2)CC1 (stereo not shown) [Example 169, 6-(benzo[d]thiazol-6-ylamino)-4-(cyclopropylamino)-N-(4-hydroxy-4-methylcyclohexyl)nicotinamide]",0.48,0.0028,–,–
CC(C)(O)C(F)(F)CNC(=O)c1cnc(Nc2ccc3ncsc3c2)cc1NC1CC1 [Example 170],0.477,0.0059,–,–
CC(C)Nc1cc(Nc2ccc3ncsc3c2)ncc1C(=O)NCC(F)(F)C(C)(C)O [Example 171],0.571,0.0043,–,–
CC(C)Nc1cc(Nc2ccc3ncsc3c2)ncc1C(=O)NC1CCCC(CO)C1 (stereo not shown) [Example 172],–,0.0067,0.3,–

Structure (SMILES),"IC50 [1, 2] [µM]",IC50 (IRAK4) [µM],"IC50 [1, 3] [µM]","IC50 ([1]; Homo sapiens, PBMC, 5 h) [µM]"
CC(C)Nc1cc(Nc2ccc3ncsc3c2)ncc1C(=O)NC1CCCC(CO)C1 (stereo not shown) [Example 173],–,0.0093,0.696,–
CC(C)Nc1cc(Nc2ccc3ncsc3c2)ncc1C(=O)NCC[C@@H](C)NC(=O)OC(C)(C)C [Example 175],0.402,0.0051,–,–
CC(C)Nc1cc(Nc2ccc3ncsc3c2)ncc1C(=O)NC12CCC(O)(CC1)C2 [Example 176],0.489,0.0103,–,–
CC(C)NC(=O)N[C@H](C)CCNC(=O)c1cnc(Nc2ccc3ncsc3c2)cc1NC(C)C [Example 177],0.191,0.0017,–,–
CC(=O)N[C@@H](C)CCNC(=O)c1cnc(Nc2ccc3ncsc3c2)cc1NC(C)C [Example 178],0.405,0.0138,–,–
CC(C)Nc1cc(Nc2ccc3ncsc3c2)ncc1C(=O)NCC[C@H](C)NC(=O)CC(C)(C)O [Example 179],0.532,0.0162,–,–
CC(=O)N[C@H](C)CCNC(=O)c1cnc(Nc2ccc3ncsc3c2)cc1NC(C)C [Example 180],0.415,0.0037,–,–
CC(C)NC(=O)N[C@@H](C)CCNC(=O)c1cnc(Nc2ccc3ncsc3c2)cc1NC(C)C [Example 181],0.453,0.0076,–,–
CC(C)Nc1cc(Nc2ccc3ncsc3c2)ncc1C(=O)NCC[C@@H](C)NC(=O)OC(C)C [Example 183],0.436,0.0039,–,–
CC(C)Nc1cc(Nc2ccc3ncsc3c2)ncc1C(=O)NCC[C@@H](C)NC(=O)C1CCCC1 [Example 184],–,0.0019,–,0.215
CC(C)Nc1cc(Nc2ccc3ncsc3c2)ncc1C(=O)NCC[C@@H](C)NC(=O)c1ccccc1 [Example 185],0.62,0.0044,–,–
CC(C)Nc1cc(Nc2ccc3ncsc3c2)ncc1C(=O)NCC[C@@H](C)NC(=O)[C@@H]1CCC(F)(F)C1 [Example 186],0.361,0.0024,–,–
CC(C)Nc1cc(Nc2ccc3ncsc3c2)ncc1C(=O)NCC[C@@H](C)NC(=O)[C@@H]1CC[C@@H](F)C1 [Example 187],0.324,0.0027,–,–
CC(C)Nc1cc(Nc2ccc3ncsc3c2)ncc1C(=O)NCC[C@@H](C)NC(=O)CC1CCCCC1(F)F (stereo partly shown) [Example 188],0.508,0.0025,–,–
CC(C)Nc1cc(Nc2ccc3ncsc3c2)ncc1C(=O)NCC[C@@H](C)NC(=O)CC1CCOCC1 [Example 189],0.3,0.0034,–,–
CC(C)Nc1cc(Nc2ccc3ncsc3c2)ncc1C(=O)NCC[C@@H](C)NC(=O)CCCC(C)(C)O [Example 190],0.25,0.0033,–,–
CC(C)Nc1cc(Nc2ccc3ncsc3c2)ncc1C(=O)NCC[C@@H](C)NC(=O)CCCCC(C)(C)O [Example 191],0.451,0.0034,–,–
CC(C)Nc1cc(Nc2ccc3ncsc3c2)ncc1C(=O)NCC[C@@H](C)NC(=O)CN(C)C [Example 192],0.264,0.0061,–,–
CC(C)Nc1cc(Nc2ccc3ncsc3c2)ncc1C(=O)NCC[C@@H](C)NC(=O)Cn1ccnn1 [Example 193],0.345,0.0031,–,–
